This passage reports Ki and IC50 results from paper doi:10.1101/757047v1 (biorxiv, 2019).

Experiment [1] addresses T1, SLK (Homo sapiens, UniProt Q9H2G2). Briefly: biochemical.
Experiment [2] has as its target T2, STK10 (Homo sapiens, UniProt O94804). Briefly: biochemical.
Experiment [3] concerns the target T3, full length GAK protein N-terminally fused with NanoLuc luciferase (Homo sapiens, UniProt O14976).
T3 sequence (O14976 2-1311): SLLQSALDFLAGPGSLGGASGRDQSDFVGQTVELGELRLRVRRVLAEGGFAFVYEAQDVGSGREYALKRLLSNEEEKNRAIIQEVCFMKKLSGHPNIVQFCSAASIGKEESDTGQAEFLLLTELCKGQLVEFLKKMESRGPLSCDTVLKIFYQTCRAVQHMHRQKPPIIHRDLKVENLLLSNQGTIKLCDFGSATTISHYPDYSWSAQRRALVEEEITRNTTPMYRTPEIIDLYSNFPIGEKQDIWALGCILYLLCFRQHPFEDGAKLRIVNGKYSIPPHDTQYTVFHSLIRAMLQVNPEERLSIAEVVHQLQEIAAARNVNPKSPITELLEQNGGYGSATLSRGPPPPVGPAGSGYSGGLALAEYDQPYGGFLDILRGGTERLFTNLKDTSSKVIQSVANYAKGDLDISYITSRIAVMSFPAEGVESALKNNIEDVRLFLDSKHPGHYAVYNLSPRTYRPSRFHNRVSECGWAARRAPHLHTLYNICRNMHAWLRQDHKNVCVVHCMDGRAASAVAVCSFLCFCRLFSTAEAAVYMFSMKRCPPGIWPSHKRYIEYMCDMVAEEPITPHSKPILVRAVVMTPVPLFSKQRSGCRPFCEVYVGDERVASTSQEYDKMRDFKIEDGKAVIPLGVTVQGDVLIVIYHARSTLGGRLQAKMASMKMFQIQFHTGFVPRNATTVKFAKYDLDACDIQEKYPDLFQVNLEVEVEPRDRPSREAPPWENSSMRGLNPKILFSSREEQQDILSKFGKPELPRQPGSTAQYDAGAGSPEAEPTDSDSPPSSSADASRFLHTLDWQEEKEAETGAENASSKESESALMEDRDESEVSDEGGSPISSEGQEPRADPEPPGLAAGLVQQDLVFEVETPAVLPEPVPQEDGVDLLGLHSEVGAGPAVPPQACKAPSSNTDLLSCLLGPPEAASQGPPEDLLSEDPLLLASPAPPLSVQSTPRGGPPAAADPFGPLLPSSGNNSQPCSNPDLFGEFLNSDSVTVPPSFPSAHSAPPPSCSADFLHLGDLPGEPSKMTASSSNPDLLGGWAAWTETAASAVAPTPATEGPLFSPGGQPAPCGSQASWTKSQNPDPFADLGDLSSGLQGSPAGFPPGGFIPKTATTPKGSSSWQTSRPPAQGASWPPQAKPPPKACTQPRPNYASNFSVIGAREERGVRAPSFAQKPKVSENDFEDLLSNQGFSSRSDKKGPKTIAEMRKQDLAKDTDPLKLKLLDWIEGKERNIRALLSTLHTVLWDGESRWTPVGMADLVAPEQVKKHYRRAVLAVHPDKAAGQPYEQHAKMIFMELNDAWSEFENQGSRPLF
Briefly: cell-based. On the set-up: species or system HEK293T.

Experiment [4] has as its target T4, GAK (Homo sapiens, UniProt O14976).
T4 sequence (O14976 12-347 limits assumed): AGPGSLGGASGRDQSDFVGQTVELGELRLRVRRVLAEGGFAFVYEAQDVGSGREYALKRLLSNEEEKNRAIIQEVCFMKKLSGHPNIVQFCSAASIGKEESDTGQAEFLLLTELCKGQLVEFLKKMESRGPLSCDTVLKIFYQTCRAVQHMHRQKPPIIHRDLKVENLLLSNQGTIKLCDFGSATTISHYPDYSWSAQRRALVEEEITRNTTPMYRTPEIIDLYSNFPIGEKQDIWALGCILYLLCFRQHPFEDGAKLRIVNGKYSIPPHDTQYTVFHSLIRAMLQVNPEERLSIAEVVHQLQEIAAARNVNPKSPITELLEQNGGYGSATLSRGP
Briefly: biochemical.

For experiment [5], the target named is T1, SLK. Briefly: biochemical. This is another data set of the same source.
For experiment [6], the target named is T2, STK10. Briefly: biochemical. This is another data set of the same source.
Experiment [7] concerns the target T3, full length GAK protein N-terminally fused with NanoLuc luciferase. Briefly: cell-based. Further details: species or system HEK293T. The source holds these as a separate data set.
Experiment [8] has as its target T4, GAK. Kind of experiment: biochemical. The source holds these as a separate data set.
The target of experiment [9] is T1, SLK. Briefly: TR-FRET binding displacement assay.
For experiment [10], the target named is T2, STK10. Kind of experiment: TR-FRET binding displacement assay.
The target in experiment [11] is T4, GAK. Briefly: TR-FRET binding displacement assay.
Experiment [12] addresses T3, full length GAK protein N-terminally fused with NanoLuc luciferase. Briefly: nanoBRET cellular target engagement. The experiment is classed as cell-based.
Where [13] appears, read: ATP site tracer displacement, 16-point dose response.

T2 sequence (O94804 36-294 limits assumed): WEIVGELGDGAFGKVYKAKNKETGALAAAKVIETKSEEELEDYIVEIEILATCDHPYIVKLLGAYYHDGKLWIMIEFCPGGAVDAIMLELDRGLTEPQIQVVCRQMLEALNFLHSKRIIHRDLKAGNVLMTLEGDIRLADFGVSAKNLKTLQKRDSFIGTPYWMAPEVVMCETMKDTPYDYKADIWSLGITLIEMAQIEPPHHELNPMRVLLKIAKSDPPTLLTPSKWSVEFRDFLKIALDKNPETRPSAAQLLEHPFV
T1 sequence (Q9H2G2 34-292): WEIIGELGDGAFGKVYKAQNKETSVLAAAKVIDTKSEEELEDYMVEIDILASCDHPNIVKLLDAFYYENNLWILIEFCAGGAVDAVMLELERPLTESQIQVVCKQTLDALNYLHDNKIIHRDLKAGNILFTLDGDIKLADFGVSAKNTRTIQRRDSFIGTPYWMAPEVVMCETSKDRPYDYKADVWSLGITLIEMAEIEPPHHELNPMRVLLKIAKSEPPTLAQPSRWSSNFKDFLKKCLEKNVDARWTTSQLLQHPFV

`C#Cc1cccc(Nc2ncnc3cc(OC)c(OC)cc23)c1F` [compound 100, 100]: the Ki is 670 nM in experiment [1] and 250 nM in experiment [2]. For the same molecule, half-maximal inhibition in experiment [3] (IC50) required 400 nM.
Consider `C#Cc1cccc(Nc2ncnc3cc(Br)ccc23)c1` [compound 64, 64], for which the figures for the inhibition constant Ki in [4], in experiment [5] and in [6] were 31 nM, 260 nM and 290 nM, respectively. For the same molecule, the 50% inhibitory concentration (IC50) in [7] is greater than 5000 nM.
Take `C#Cc1cccc(Nc2ncnc3ccc(C)cc23)c1` [compound 55, 55]: the Ki was determined as 43 nM in experiment [4], 4300 nM in experiment [5] and 2600 nM in [6]. For the same molecule, it took 3600 nM to reach half-maximal inhibition in experiment [7] (IC50).
Consider `C#Cc1cccc(Nc2ncnc3cc(C(F)(F)F)ccc23)c1` [compound 66, 66], for which the inhibition constant (Ki) was found to be 88 nM in [4], 1200 nM in [5] and 1000 nM in [6]. This molecule also came in with an IC50 in [7] greater than 5000 nM.
`C#Cc1cccc(Nc2ncnc3cc(F)ccc23)c1` [compound 62, 62]: the inhibition constant (Ki) amounted to 22 nM in experiment [4], 1200 nM in experiment [5] and 1200 nM in experiment [6]. For the same molecule, half-maximal inhibition in [7] (IC50) was put at 4100 nM.
On to `C#Cc1cc(Nc2ncnc3cc(OC)c(OC)cc23)ccc1F` [compound 101, 101], for which the results for the Ki in experiment [8], in [1] and in [2] were 2.4 nM, 72 nM and 47 nM, respectively. The same molecule showed an IC50 in experiment [3] of 140 nM.
As for `C#Cc1ccc(F)c(Nc2ncnc3cc(C#N)ccc23)c1` [compound 87, 4-((5-ethynyl-2-fluorophenyl)amino)quinazoline-7-carbonitrile], the inhibition constant Ki in experiment [9] turned out to be 560 nM; in [10], 670 nM; in experiment [11] it was 1200 nM. In experiment [3], the IC50 was greater than 5000 nM.
As for `C#Cc1cccc(Nc2ncnc3ccc(I)cc23)c1F` [compound 96, 96], the Ki in [8] came out at 290 nM; in [1] it was 18000 nM; in [2] it was 6700 nM. The molecule also yielded a half-maximal inhibitory concentration (IC50) in experiment [3] greater than 5000 nM.
Turning to `C#Cc1cc(Nc2ncnc3cc(I)ccc23)ccc1F` [compound 93, 93], the Ki in [1] and in experiment [2] was 110 nM in each case. The same molecule displayed an IC50 in experiment [3] greater than 5000 nM.
As for `C#Cc1cccc(Nc2ncnc3ccc(I)cc23)c1` [compound 60, 60], the inhibition constant (Ki) in experiment [4] is 44 nM; in experiment [5], 4300 nM; in experiment [6] it was 3700 nM. Besides, the 50% inhibitory concentration (IC50) in [7] was greater than 5000 nM.
With `C#Cc1cccc(Nc2ncnc3cc(I)ccc23)c1` [compound 65, 65], the inhibition constant (Ki) in [4] is 20 nM; in [5], 180 nM; in experiment [6], 150 nM. This molecule also showed an IC50 in experiment [7] greater than 5000 nM.
As for `C#Cc1cccc(Nc2ncnc3ccc(OC)cc23)c1` [compound 70, 70], the Ki in experiment [4] worked out at 24 nM; in experiment [5], 2800 nM; in experiment [6], 2200 nM. In experiment [7], the half-maximal inhibitory concentration (IC50) is 2900 nM.
The corresponding values for `C#Cc1cccc(Nc2ncnc3ccc(Br)cc23)c1` [compound 59, 59] are 28 nM, 3400 nM, 2500 nM and greater than 5000 nM.
In the same order, the values of `C#Cc1cccc(Nc2ncnc3ccc(C(F)(F)F)cc23)c1` [compound 61, 61] are 150 nM, 3200 nM, 3400 nM and greater than 5000 nM.
For the molecule `C#Cc1cccc(Nc2ncnc3cc(OC)ccc23)c1` [compound 72, 72], the figures for the Ki in experiment [4], in experiment [5] and in [6] were 8.8 nM, 670 nM and 460 nM, respectively. The half-inhibitory concentration (IC50) in experiment [7] came to 1200 nM.
For the molecule `C#Cc1cccc(Nc2ncnc3ccccc23)c1` [compound 54, 54], the Ki amounted to 170 nM in experiment [4], 23000 nM in experiment [5] and 10000 nM in [6]. The same molecule yielded an IC50 in experiment [7] of 4500 nM.
For `C#Cc1cccc(Nc2ncnc3cc4c(cc23)OCO4)c1` [compound 73, 73], the Ki in experiment [4] was found to be 19 nM; in experiment [5], 2700 nM; in experiment [6], 1500 nM. The same molecule showed an IC50 in experiment [7] of 1700 nM.
In the same order, the values of `C#Cc1cccc(Nc2ncnc3cc(F)c(F)cc23)c1` [compound 57, 57] are 85 nM, 3800 nM, 2900 nM and greater than 5000 nM.
Regarding `COc1cc(Nc2ccnc3cc(I)ccc23)cc(OC)c1OC` [compound 19, 19], half-maximal inhibition in experiment [12] (IC50) was put at 74 nM. Besides, the Ki amounted to 1700 nM in experiment [9], 210 nM in experiment [10] and 4.4 nM in [11].
In the same order, the values of `COc1cc(Nc2ccnc3cc(Br)ccc23)cc(OC)c1OC` [compound 18, 18] are 270 nM, 2700 nM, 380 nM and 4.9 nM.
In [12], `COc1cc(Nc2ccnc3ccccc23)cc(OC)c1OC` [compound 7, 7] showed a concentration for half-maximal inhibition (IC50) of 730 nM. The Ki in experiment [9] is greater than 55000 nM; in [10] it was 27800 nM; in experiment [11] (setting [13]) it was 40 nM.
The molecule `COc1ccc2nccc(Nc3cc(OC)c(OC)c(OC)c3)c2c1` [compound 14, 14] gave an IC50 in [12] of 360 nM. The Ki is greater than 55000 nM in experiment [9], 12000 nM in experiment [10] and 13 nM in experiment [11] (setting [13]).
In turn, `C#Cc1cccc(Nc2ccnc3cc(OCCOC)c(OCCOC)cc23)c1` [compound 1, erlotinib quinoline] yielded a half-maximal inhibitory concentration (IC50) in experiment [12] (HEK293T cells, tracer displacement, n=[…] mean) of 4200 nM. Also, the inhibitory constant (Ki) worked out at 1200 nM in experiment [9], 720 nM in experiment [10] and 100 nM in experiment [11].
In the case of `C#Cc1cccc(Nc2ncnc3ccc(C#N)cc23)c1` [compound 68, 68], the figures for the Ki in experiment [4], in [5] and in [6] were 170 nM, 7900 nM and 4700 nM, respectively. The same molecule yielded an IC50 in experiment [7] greater than 5000 nM.
As to `C#Cc1cccc(Nc2ncnc3ccc(Cl)cc23)c1` [compound 58, 58], the results for the inhibitory constant (Ki) in experiment [4], in experiment [5] and in experiment [6] were 30 nM, 3900 nM and 2800 nM, respectively. This molecule gave an IC50 in experiment [7] greater than 5000 nM.
In turn, `COc1cc(Nc2ccnc3cc(Cl)ccc23)cc(OC)c1OC` [compound 17, 17] came in with an IC50 in experiment [12] of 250 nM. Moreover, the Ki in experiment [9] turned out to be 2100 nM; in experiment [10] it was 210 nM; in experiment [11], 1.3 nM.
With `C#Cc1cccc(Nc2ncnc3ccc(F)cc23)c1` [compound 56, 56], the inhibitory constant (Ki) worked out at 70 nM in experiment [4], 8500 nM in experiment [5] and 5500 nM in experiment [6]. Further, in [7], 2000 nM corresponded to half-maximal inhibition (IC50).
As to `COc1cc(Nc2ccnc3ccc(Cl)cc23)cc(OC)c1OC` [compound 10, 10], inhibition in experiment [12] was half-maximal at 210 nM (IC50). Besides, the Ki in experiment [9] stood at 11000 nM; in experiment [10], 1000 nM; in [11], 0.68 nM.
